Measurements reported in patent US5420335A, “Parenteral nutrients based on watersoluble glycerol bisacetoacetates” (priority 1993, dated 1995).
Several values for one entry are separate records, joined by “and”; a condition that tells them apart may be missing. Equal entries are not always repeated. Entries after “also recorded” stand apart in the source; their conditions may differ.

Experiments:
[1] = Oral dietary nitrogen (food) intake of intravenously infused rats; assay type: in vivo, rat (male Sprague-Dawley); settings: Table 7, Example 4, oral only
[2] = Daily urinary nitrogen losses of intravenously infused rats; assay type: in vivo, rat (male Sprague-Dawley); settings: for Urinary Nitrogen: Table 8, Example 4
Protocol: (§1) Water was available ad libitum at all times.
(§2) The vein was then ligated dorsally to the catheter. […] Body weights were measured daily.
(§3) Infusate volume, oral food intake, body weight and urinary volume and total nitrogen were monitored daily for each rat. Infusate volume and food intake were determined by weighing the appropriate container at the start and end of each 24 hr. period. Measurements were recorded between 9 and 10 AM each day. At the end of the 7th day, rats were sacrificed, and blood and liver were harvested. Plasma was separated for measurement of free fatty acids, glucose, and ketone bodies. Liver was weighed and a sample was fixed in buffered formalin for gross histology.
(§4) The data were analyzed for significance by the one-way analysis of variance with repeated measures and comparing the effect of dietary treatment on each day. […] The null hypothesis was concluded invalid if p≤0.05. The analysis of variance was computed on a SAS statistical package. […]

[3] = Nitrogen balance (difference between intake and urinary output); assay type: in vivo, rat (male Sprague-Dawley); settings: for Nitrogen Balance, Difference Between Intake And Output: average of 9 rats
Protocol: as §1, §2, §3
(§5) The data were analyzed for significance by the one-way analysis of variance with repeated measures and comparing the effect of dietary treatment on each day. […] The null hypothesis was concluded invalid if p≤0.05. The analysis of variance was computed on a SAS statistical package.
FIG. 3 illustrates the difference between oral intake and urinary nitrogen output which is termed nitrogen balance. It is representative of nitrogen balance because urinary nitrogen is the major route for body loss of nitrogen.
The experimental compound contains 8% nitrogen. With an infusion of 5.6 grams/day, infused nitrogen would provide approximately 450 mg more than that listed in the data tables. The final balance figures includes this number which is calculated based on the actual daily infusion rate for each rat.

[4] = Overall evaluation as a parenteral nutrient; assay type: in vivo, rat (male Sprague-Dawley); settings: in words
Protocol: as §1, §2, §3, §5

[5] = Plasma free fatty acids, glucose and ketone bodies after 7 days of infusion; assay type: in vivo, rat (male Sprague-Dawley); settings: for ACAC / BOHB / Glucose / Total FFA: Table 11, Example 4
Protocol: as §3, §5

[6] = Oral dietary nitrogen (food) intake of intravenously infused rats; assay type: in vivo, rat (male Sprague-Dawley); settings: in words
Protocol: as §1, §2, §3, §5
(§6) This compound has an estimated energy density of 4.86 kcal/gram based on thermodynamic data from similar compounds.

[7] = Mortality and gross toxicity on intravenous infusion; settings: in words; conclusion
Protocol: as §1, §2

[8] = Daily body weight of intravenously infused rats; assay type: in vivo, rat (male Sprague-Dawley); settings: for Daily Body Weight: Table 10, Example 4
Protocol: as §1, §2, §3, §5, §6

[9] = Liver weight after 7 days of infusion; assay type: in vivo, rat (male Sprague-Dawley); settings: Table 11, Example 4; for Liver/100 GM: as percentage of body weight; for Liver Wt.: end of day 7
Protocol: as §3, §4

CC(=O)CC(=O)NCC(O)CO (centres unmarked) [Compound 2, 1-acetoacetamido-2,3-propane diol]
Dietary Nitrogen Intake ([1]; day 1, average of 9 rats): 279 MG N
Dietary Nitrogen Intake ([1]; day 1, individual rat): 513.24 MG N and 92.12 MG N and 164.5 MG N and 138.18 MG N and 171.08 MG N and 493.5 MG N and 440.86 MG N and 355.32 MG N
Dietary Nitrogen Intake ([1]; day 2, average of 9 rats): 376 MG N
Dietary Nitrogen Intake ([1]; day 2, individual rat): 532.98 MG N and 256.62 MG N and 526.4 MG N and 59.22 MG N and 282.94 MG N and 506.66 MG N and 263.2 MG N and 447.44 MG N
Dietary Nitrogen Intake ([1]; day 3, average of 9 rats): 429 MG N
Dietary Nitrogen Intake ([1]; day 3, individual rat): 532.98 MG N and 407.96 MG N and 546.14 MG N and 118.44 MG N and 506.66 MG N and 500.08 MG N and 210.56 MG N and 513.24 MG N and 526.4 MG N
Dietary Nitrogen Intake ([1]; day 4, average of 9 rats): 388 MG N
Dietary Nitrogen Intake ([1]; day 4, individual rat): 480.34 MG N and 263.2 MG N and 473.76 MG N and 65.8 MG N and 296.1 MG N and 519.82 MG N and 355.32 MG N
Dietary Nitrogen Intake ([1]; day 5, average of 9 rats): 369 MG N
Dietary Nitrogen Intake ([1]; day 5, individual rat): 480.34 MG N and 427.7 MG N and 355.32 MG N and 0 MG N and 52.64 MG N and 500.08 MG N and 519.82 MG N and 506.66 MG N
Dietary Nitrogen Intake ([1]; day 6, average of 9 rats): 434 MG N
Dietary Nitrogen Intake ([1]; day 6, individual rat): 526.4 MG N and 421.12 MG N and 388.22 MG N and 0 MG N and 519.82 MG N and 500.08 MG N and 513.24 MG N and 506.66 MG N
Dietary Nitrogen Intake ([1]; day 7, average of 9 rats): 466 MG N
Dietary Nitrogen Intake ([1]; day 7, individual rat): 526.4 MG N and 546.14 MG N and 506.66 MG N and 0 MG N and 532.98 MG N and 519.82 MG N
Urinary Nitrogen ([2]; day 1, average of 9 rats): 477 mg
Urinary Nitrogen ([2]; day 1, individual rat): 562.1 mg and 483.2 mg and 380.8 mg and 411.4 mg and 401.7 mg and 527.6 mg and 477.8 mg and 509.6 mg and 536.4 mg
Urinary Nitrogen ([2]; day 2, average of 9 rats): 550 mg
Urinary Nitrogen ([2]; day 2, individual rat): 661.5 mg and 542.5 mg and 499.8 mg and 464 mg and 462.84 mg and 583.3 mg and 486 mg and 528 mg and 718.2 mg
Urinary Nitrogen ([2]; day 3, average of 9 rats): 576 mg
Urinary Nitrogen ([2]; day 3, individual rat): 671.9 mg and 704.1 mg and 548.1 mg and 413.8 mg and 619.3 mg and 603.8 mg and 315.2 mg and 622.2 mg and 682.4 mg
Urinary Nitrogen ([2]; day 4, average of 9 rats): 531 mg
Urinary Nitrogen ([2]; day 4, individual rat): 559.8 mg and 477.4 mg and 468.3 mg and 385 mg and 499.7 mg and 603.7 mg and 494.3 mg and 614.8 mg and 674.2 mg
Urinary Nitrogen ([2]; day 5, average of 9 rats): 479 mg
Urinary Nitrogen ([2]; day 5, individual rat): 599 mg and 456 mg and 434.3 mg and 300.2 mg and 365.9 mg and 503.5 mg and 525.1 mg and 552.9 mg and 572.3 mg
Urinary Nitrogen ([2]; day 6, average of 9 rats): 548 mg
Urinary Nitrogen ([2]; day 6, individual rat): 569 mg and 659.4 mg and 440.8 mg and 286.1 mg and 545.2 mg and 538.5 mg and 608.2 mg and 599 mg and 686.7 mg
Urinary Nitrogen ([2]; day 7, average of 9 rats): 567 mg
Urinary Nitrogen ([2]; day 7, individual rat): 602 mg and 613.5 mg and 519.4 mg and 81.4 mg and 588.3 mg and 633.1 mg and 678 mg and 683.9 mg and 706.8 mg
urinary nitrogen losses ([2]; in words, 7 days): reflects the greater nitrogen intake by rats infused with the experimental compound
Nitrogen Balance, Difference Between Intake And Output ([3]; Table 9, Example 4, infused nitrogen not considered, day 1): -198 mg N
Nitrogen Balance, Difference Between Intake And Output ([3]; Table 9, Example 4, infused nitrogen not considered, day 2): -173 mg N
Nitrogen Balance, Difference Between Intake And Output ([3]; Table 9, Example 4, infused nitrogen not considered, day 3): -146 mg N
Nitrogen Balance, Difference Between Intake And Output ([3]; Table 9, Example 4, infused nitrogen not considered, day 4): -142 mg N
Nitrogen Balance, Difference Between Intake And Output ([3]; Table 9, Example 4, infused nitrogen not considered, day 5): -109 mg N
Nitrogen Balance, Difference Between Intake And Output ([3]; Table 9, Example 4, infused nitrogen not considered, day 6): -114 mg N
Nitrogen Balance, Difference Between Intake And Output ([3]; Table 9, Example 4, infused nitrogen not considered, day 7): -101 mg N
Nitrogen Balance, Difference Between Intake And Output ([3]; Table 9A, Example 4, infused nitrogen included, day 1): 256 mg N
Nitrogen Balance, Difference Between Intake And Output ([3]; Table 9A, Example 4, infused nitrogen included, day 2): 258 mg N
Nitrogen Balance, Difference Between Intake And Output ([3]; Table 9A, Example 4, infused nitrogen included, day 3): 361 mg N
Nitrogen Balance, Difference Between Intake And Output ([3]; Table 9A, Example 4, infused nitrogen included, day 4): 302 mg N
Nitrogen Balance, Difference Between Intake And Output ([3]; Table 9A, Example 4, infused nitrogen included, day 5): 317 mg N
Nitrogen Balance, Difference Between Intake And Output ([3]; Table 9A, Example 4, infused nitrogen included, day 6): 299 mg N
Nitrogen Balance, Difference Between Intake And Output ([3]; Table 9A, Example 4, infused nitrogen included, day 7): 336 mg N
nitrogen balance ([3]; in words, 7 days): negative nitrogen balance if nitrogen content of the compound is not considered
efficacy as parenteral nutrient / energy source [4]: not a good source of energy
efficacy as parenteral nutrient / energy source ([4]; listed as 1-acetoacetamido-2,3-propane diol): ineffective as parenteral nutrients
ACAC ([5]; plasma, average): 0.195 mmol/L
BOHB ([5]; plasma, average): 0.897 mmol/L
Glucose ([5]; plasma, average): 108.589 mg/dL
Total FFA ([5]; plasma, average): 0.580 mmol/L
ACAC ([5]; plasma, individual rat): 0.0958 mmol/L and 0.1231 mmol/L and 0.1385 mmol/L and 0.1032 mmol/L and 0.3378 mmol/L and 0.0999 mmol/L and 0.3415 mmol/L and 0.3225 mmol/L
BOHB ([5]; plasma, individual rat): 0.8481 mmol/L and 0.9004 mmol/L and 0.2501 mmol/L and 1.13 mmol/L and 0.8685 mmol/L and 1.3611 mmol/L and 0.5709 mmol/L and 1.163 mmol/L and 0.9826 mmol/L
Glucose ([5]; plasma, individual rat): 109.8 mg/dL and 105.2 mg/dL and 112.1 mg/dL and 111.4 mg/dL and 121 mg/dL and 91.1 mg/dL and 132.1 mg/dL and 114.6 mg/dL and 80 mg/dL
Total FFA ([5]; plasma, individual rat): 0.306 mmol/L and 0.472 mmol/L and 0.376 mmol/L and 1.408 mmol/L and 0.546 mmol/L and 0.651 mmol/L and 0.286 mmol/L and 0.676 mmol/L and 0.498 mmol/L
blood / plasma glucose ([5]; in words, end of day 7): low blood glucose
ketone bodies ([5]; in words, plasma, end of day 7): absence of elevated plasma acetoacetate; also recorded: neither of the ketone bodies were elevated when compared to the saline infused rats
appetite depression ([6]; Example 4): did not depress the rats appetite
differences in dietary nitrogen intake among the three groups ([6]; vs saline and other groups, 7 days): no differences in dietary nitrogen intake among the three groups
lethality [7]: not acutely nor chronically lethal
Daily Body Weight ([8]; day 0, average of 9 rats): 244 Grams
Daily Body Weight ([8]; day 0, individual rat): 247 Grams and 223 Grams and 252 Grams and 251 Grams and 259 Grams and 236 Grams and 243 Grams and 237 Grams
Daily Body Weight ([8]; day 1, average of 9 rats): 234 Grams
Daily Body Weight ([8]; day 1, individual rat): 243 Grams and 207 Grams and 240 Grams and 230 Grams and 244 Grams and 242 Grams and 227 Grams and 239 Grams and 237 Grams
Daily Body Weight ([8]; day 2, average of 9 rats): 234 Grams
Daily Body Weight ([8]; day 2, individual rat): 247 Grams and 205 Grams and 239 Grams and 227 Grams and 243 Grams and 230 Grams and 235 Grams and 237 Grams
Daily Body Weight ([8]; day 3, average of 9 rats): 234 Grams
Daily Body Weight ([8]; day 3, individual rat): 251 Grams and 204 Grams and 238 Grams and 223 Grams and 240 Grams and 243 Grams and 235 Grams and 233 Grams
Daily Body Weight ([8]; day 4, average of 9 rats): 233 Grams
Daily Body Weight ([8]; day 4, individual rat): 255 Grams and 199 Grams and 234 Grams and 208 Grams and 235 Grams and 233 Grams and 244 Grams
Daily Body Weight ([8]; day 5, average of 9 rats): 236 Grams
Daily Body Weight ([8]; day 5, individual rat): 253 Grams and 246 Grams and 234 Grams and 212 Grams and 230 Grams and 241 Grams and 236 Grams and 237 Grams
Daily Body Weight ([8]; day 6, average of 9 rats): 235 Grams
Daily Body Weight ([8]; day 6, individual rat): 251 Grams and 242 Grams and 233 Grams and 204 Grams and 243 Grams and 248 Grams and 232 Grams and 231 Grams
Daily Body Weight ([8]; day 7, average of 9 rats): 228 Grams
Daily Body Weight ([8]; day 7, individual rat): 250 Grams and 218 Grams and 232 Grams and 196 Grams and 237 Grams and 219 Grams and 236 Grams
change in body weight ([8]; in words, 7 days): held relatively constant until the final day when they lose weight; also recorded: did not lose weight nor did they gain
Liver/100 GM ([9]; average): 3.891
Liver/100 GM ([9]; individual rat): 3.621 and 5.165 and 3.928 and 3.739 and 4.018 and 3.066 and 4.304 and 3.228 and 3.95
Liver Wt. ([9]; average): 8.842
Liver Wt. ([9]; individual rat): 9.0537 and 11.2604 and 9.1128 and 7.3291 and 9.3228 and 7.2672 and 9.4265 and 7.4879 and 9.3213
